Earlier results, collected in patent US4944949A, “Pharmaceutical delivery systems” (priority 1986, dated 1990).
Like-named read-outs stand apart in the source and are kept apart here.

Assays:
[1] = for most frequent adverse effects: in vivo
[2] = in vivo
[3] = tested on: plasma proteins
[4] = for faecal blood loss with oral prostaglandin E2: oral PGE2 1 mg three or four times daily given with the drug
[5] = parts of drug dissolving in 10,000 parts of water

SMILES	absorption [2]	solubility in organic solvents	most frequent adverse effects [1]	further results
O=C(O)Cc1ccccc1Nc1c(Cl)cccc1Cl [Diclofenac]	fairly well absorbed	soluble in some organic solvents	–	Gastrointestinal disturbances / side effects reported ([1]; % of cases): about 7%; solubility in water (water): poorly soluble in water
CC(C(=O)O)c1ccc(-c2ccccc2)c(F)c1 (centres unmarked) [Flurbiprofen]	readily absorbed	readily soluble in most organic solvents	–	bound to plasma proteins ([3]; plasma): approximately 99%
CC(C)Cc1ccc(C(C)C(=O)O)cc1 (centres unmarked) [Ibuprofen, ibuprofen]	well absorbed	fairly soluble in simple organic solvents	gastrointestinal	solubility in water [5]: less than 1 part in 10,000 parts of water; solubility in water (water): poorly soluble in water
CC(C(=O)O)c1cccc(C(=O)c2ccccc2)c1 (centres unmarked) [Ketoprofen]	–	–	gastrointestinal	–
O=C(O)c1ccccc1Nc1cccc(C(F)(F)F)c1 [Flufenamic acid]	well absorbed	reasonably soluble in various organic solvents	gastrointestinal disturbances	bound to plasma proteins [3]: extensively bound to plasma proteins; solubility in water [5]: less than 1 part in 10,000 parts of water
CCCCC1C(=O)N(c2ccccc2)N(c2ccccc2)C1=O [Phenylbutazone]	readily absorbed	–	nausea, vomiting and epigastric distress	–
COc1ccc2c(c1)c(CC(=O)O)c(C)n2C(=O)c1ccc(Cl)cc1 [Indomethacin]	readily absorbed	more soluble in simple organic solvents	gastrointestinal problems, headache and dizziness	increase in faecal blood loss ([4]; compared with controls): ~3 fold; faecal blood loss with oral prostaglandin E2 [4]: reduced to control levels; parts of water in which drug is soluble (parts of water per part of drug): more than 10,000 parts of water
CC1=C(CC(=O)O)c2cc(F)ccc2/C1=C\c1ccc([S+](C)[O-])cc1 (centres unmarked) [Sulindac]	incompletely absorbed from the gastrointestinal tract	–	gastrointestinal, headache and dizziness	–
COc1ccc2cc([C@H](C)C(=O)O)ccc2c1 [Naproxen]	–	–	gastrointestinal	–
CC(=O)Oc1ccccc1C(=O)O [Aspirin]	–	–	–	faecal blood loss with oral prostaglandin E2 [4]: reduced to control levels
CN1C(C(=O)Nc2ccccn2)=C(O)c2ccccc2S1(=O)=O [Piroxicam]	well absorbed	soluble in some organic solvents	high incidence of severe gastrointestinal side effects	bound to plasma proteins ([3]; plasma): 99%; solubility in water (water): poorly soluble in water
